The text below walks through data of US9162991B2 (University of Ottawa, priority 2007, dated 2015).

As a reminder, the IC50 is the concentration that gives 50% inhibition. The term inhibition denotes the share of the control response that was lost under treatment. Lower therefore signals a response near the control.

In assay [1] the test system is tissue transglutaminase (TG2). The assay is described as follows: Cytochrome c (cytC) promoter/luciferase reporter assay in CHO cells. In kind it is cell-based, Chinese Hamster. As to conditions: 100 μM, CHO cells incubated 12 hours, luminescence of cell lysate. An excerpt: IN VITRO STUDIES FOR COMPOUND 15a: A cytochrome c (cytC) promoter/luciferase reporter assay (illustrated in FIG. 6) was used to assess tissue transglutaminase (TG2) activity for compound 15a. In the absence of TG2, transcription factors bind to the cytC promoter region of the luciferase gene, and the level of expressed luciferase is detected from the luminescence of the Chinese Hamster Ovary (CHO) cell lysate (A). The level of effective cytC promoter is sensitive to endogenous TG2 co-expressed in CHO cells. High TG2 expression results in low promoter activity, presumably because the transcription factors that bind to the cytC promoter have Gln-rich sequences that are modified by TG2-mediated hydrolysis or transamidation (B). In the presence of TG2 inhibitors, TG2-induced silencing of the promoter is repressed and luciferase is detected in the lysate once more (C). In this assay, CHO cells are incubated in the presence of the inhibitor compound for 12 hours, after which the luminescence of cell lysate is measured, as an indication of the level of TG2 inhibition.

Assay [2] concerns the target recombinant guinea pig liver TGase (Cavia cutleri (Guinea pig), UniProt P08587). The assay is described as follows: biochemical. The format is biochemical. On the procedure: ENZYME INHIBITION BY COMPOUNDS 14a-c, 14l, 15a, 15d-k, 15m-q, 30a, 30r, 30t, 37a and 38a: For enzymology studies of these compounds, recombinant guinea pig liver TGase was expressed in Escherichia coli and effectively purified (Gillet, S. M. F. G. et al J. N., Prot. Exp. & Purif. 2004, 33, 256).
The mode of inhibition was determined for the representative lead compound 14a through non-linear regression of initial rate data to the Michaelis-Menten equation (FIG. 1).
For the ensuing enzymatic tests, recombinant guinea pig liver TGase was expressed in E. Coli and effectively purified.
Kinetic runs were recorded on a Cary 100 BIO UV-Visible spectrophotometer at 405 nm and 25° C., in a buffer composed of 50 mM CaCl2, 50 μM EDTA and 0.1 M MOPS (pH 7.0). All aqueous solutions were prepared using de-ionized water purified from the Millipore BioCell system. […] Factor XIIIa activity was measured using a coupled-enzyme assay (Day, N.; Keillor, J. W. Anal. Biochem. 1999, 274, 141). Factor XIIIa, was added to a final concentration of 0.89 μg/mL to a pH 8.5 solution (0.1 M Tris-HCl, 5 mM CaCl2 and 10 mM DDT) of 0.5 mM β-NADH, 3.3 mM Na-acetyl-L-lysine methyl ester, 10 mM α-ketoglutaric acid sodium salt and 297 μg/mL glutamate dehydrogenase (GDH).

The next assay concerns the target human caspase 3 (Homo sapiens (Human), UniProt P42574). The assay is described as follows: Caspase 3 activity, release of p-nitroaniline from Ac-Asp-Glu-Val-Asp-pNA. The format is biochemical. An excerpt:
To examine the enzyme selectivity of this new family of TG2 inhibitors, several representative compounds (14a, 15p, 18a, 28a and 30a) were further tested as inhibitors of related enzymes. For these studies, Factor XIIIa was chosen because it is a member of the family of transglutaminase enzymes and its inhibition in vivo may lead to compromised coagulation and toxicity. Caspase 3 was also chosen because as a cysteine protease, its acyl transfer mechanism is phenomenologically similar to that of TGase. At concentrations approaching the limits of their solubility, most of those compounds had no discernable effect on the activities of either of these enzymes (data not shown). […] This selectivity bodes well for in vivo application.
The subsequent absorbance decrease was followed at 340 nm at 37° C. Caspase 3 activity was measured by monitoring the release of p-nitroaniline (pNA) (λabs=405 nm) from the peptidic substrate Ac-Asp-Glu-Val-Asp-pNA (20 μM) catalyzed by human caspase 3 (Sigma, 250 ng/mL) at pH 7.4 (18.6 mM HEPES, 1.9 mM EDTA, 0.09% CHAPS and 4.7 mM DTT).

[3] abbreviates: Table 1, substituent on the cinnamoyl aromatic group, read-out: IC50 (μM), class symbol.
[4] abbreviates: Table 1, value in brackets, read-out: IC50.
Setting [5] is: Table 2, influence of the cinnamoyl double bond, read-out: IC50 (μM), class symbol.
The mark [6] stands for this setting: Table 2, value in brackets or words, read-out: IC50.
[7] abbreviates: Table 3, influence of the acylated moiety, read-out: IC50 (μM), class symbol.
Setting [8] is: Table 3, value in brackets, read-out: IC50.

Where two headings read alike, the source gives them in different places.

recombinant guinea pig liver TGase, sequence (P08587 whole entry): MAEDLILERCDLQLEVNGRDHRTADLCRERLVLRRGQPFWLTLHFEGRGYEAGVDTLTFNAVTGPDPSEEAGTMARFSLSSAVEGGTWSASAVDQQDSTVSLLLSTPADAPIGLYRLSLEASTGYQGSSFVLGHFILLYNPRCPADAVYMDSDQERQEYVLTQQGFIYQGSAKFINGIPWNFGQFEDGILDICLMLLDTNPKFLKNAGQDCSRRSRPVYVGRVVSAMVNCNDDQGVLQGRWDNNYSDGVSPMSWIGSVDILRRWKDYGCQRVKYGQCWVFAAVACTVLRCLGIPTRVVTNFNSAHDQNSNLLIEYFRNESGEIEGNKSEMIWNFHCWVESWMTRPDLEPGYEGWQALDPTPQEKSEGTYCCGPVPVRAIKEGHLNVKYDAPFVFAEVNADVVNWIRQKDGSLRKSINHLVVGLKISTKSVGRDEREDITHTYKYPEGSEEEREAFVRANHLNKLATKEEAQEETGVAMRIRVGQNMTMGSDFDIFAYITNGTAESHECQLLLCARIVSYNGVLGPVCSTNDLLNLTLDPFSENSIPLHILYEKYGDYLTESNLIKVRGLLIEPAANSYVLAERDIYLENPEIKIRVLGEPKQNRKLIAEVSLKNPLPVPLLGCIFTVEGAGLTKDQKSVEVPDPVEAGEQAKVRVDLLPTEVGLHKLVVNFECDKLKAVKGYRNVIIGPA
human caspase 3, sequence (P42574 29-175): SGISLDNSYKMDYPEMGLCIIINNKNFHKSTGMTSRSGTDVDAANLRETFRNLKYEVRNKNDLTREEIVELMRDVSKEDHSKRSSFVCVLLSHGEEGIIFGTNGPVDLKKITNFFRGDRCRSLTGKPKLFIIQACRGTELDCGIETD
human caspase 3, sequence (P42574 176-277): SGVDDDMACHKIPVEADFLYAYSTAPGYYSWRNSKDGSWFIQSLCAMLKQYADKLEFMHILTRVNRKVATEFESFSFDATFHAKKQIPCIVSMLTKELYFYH

As to `O=C(/C=C/c1ccc([N+](=O)[O-])cc1)n1nnc2ccccc21` [Compound 15a, p-Nitrocinnamoyl benzotriazolyl amide], the “inhibition of TG2-mediated silencing of cytC promoter” value in assay [1] is “complete inhibition”. Besides, in assay [2], the “TGase inhibitory activity (in words)” value is reported as “Inhibitory activity was observed”. For the same compound, the 50% inhibitory concentration (IC50) is over 50 µM in assay [2] (setting [3]); 74 µM in assay [2] (setting [4]); over 50 µM in assay [2] (setting [5]); 74 µM in assay [2] (setting [6]); over 50 µM in assay [2] (setting [7]).

On to `O=C(Nc1ccc(C=CC(=O)n2nnc3ccccc32)cc1)OCC1c2ccccc2-c2ccccc21` [Compound 15p, p-(9-Fluorenylmethoxycarbonylamino)cinnamoyl benzotriazolyl amide], for which the 50% inhibitory concentration (IC50) is 20 to 50 µM in assay [2] (setting [3]) and 25 µM in assay [2] (setting [4]).

As for `COC(=O)c1ccc(/C=C/C(=O)n2nnc3ccccc32)cc1` [Compound 15q, p-(Methoxycarbonyl)cinnamoyl benzotriazolyl amide], the IC50 in assay [2] (setting [3]) is 20 to 50 µM; in assay [2] (setting [4]) it was 27 µM.

`O=C(C=Cc1ccc([N+](=O)[O-])cc1)On1nnc2cccnc21` [Compound 16a, p-Nitrocinnamoyl oxyazabenzotriazolyl amide]: the “TGase inhibitory activity (in words)” value in assay [2] is recorded as “Inhibitory activity was observed”. For the same compound, the IC50 in assay [2] (setting [7]) was in the range of 20 to 50 µM.

For `O=C(/C=C/c1ccc([N+](=O)[O-])cc1)OCc1ccccc1` [Compound 19a, p-Nitrocinnamoyl benzyl ester], the “TGase inhibitory activity (in words)” value in assay [2] was “little inhibitory activity”. Further, the IC50 in assay [2] (setting [7]) is over 50 µM.

On to `CC(C)(C)OC(=O)/C=C/c1ccc([N+](=O)[O-])cc1` [Compound 20a, p-Nitrocinnamoyl t-butyl ester], for which, in assay [2], the “TGase inhibitory activity (in words)” value was “little inhibitory activity”. Besides, the IC50 in assay [2] (setting [7]) was over 50 µM.

As to `O=C(/C=C/c1ccc([N+](=O)[O-])cc1)Nc1ccccc1` [Compound 22a, p-Nitrocinnamoyl phenyl amide], the IC50 in assay [2] (setting [7]) is over 50 µM.

As for `O=C(/C=C/c1ccc([N+](=O)[O-])cc1)Nc1cccc2ccccc12` [Compound 23a, p-Nitrocinnamoyl naphtalenyl amide], the IC50 in assay [2] (setting [7]) is over 50 µM; in assay [2] (setting [8]), over 200 µM.

For the compound `O=C(/C=C/c1ccc([N+](=O)[O-])cc1)N1CCCCC1` [Compound 24a, p-Nitrocinnamoyl piperidinyl amide], in assay [2], the IC50 was over 50 µM.

For `O=C(/C=C/c1ccc([N+](=O)[O-])cc1)N1CCc2ccccc21` [Compound 25a, p-Nitrocinnamoyl indolinyl amide], in assay [2] (setting [7]), the IC50 is over 50 µM.

For the compound `O=C(C=Cc1ccc([N+](=O)[O-])cc1)N(Cc1ccccc1)Cc1ccccc1` [Compound 26a, p-Nitrocinnamoyl dibenzyl amide], the IC50 was 20 to 50 µM in assay [2] (setting [7]), 57 µM in assay [2] (setting [8]) and 57 µM in assay [2] (read-out: IC50).

Turning to `CN(Cc1ccccc1)C(=O)/C=C/c1ccc([N+](=O)[O-])cc1` [Compound 27a, p-Nitrocinnamoyl methylbenzyl amide], in assay [2] (setting [7]), the IC50 was over 50 µM.

On human caspase 3 (at 6 μM), `O=C(/C=C/c1ccc([N+](=O)[O-])cc1)c1cc2ccccc2oc1=O` [Compound 28a, 3-((E)-3-(4-Nitrophenyl)acryloyl)-2H-chromen-2-one] returned an inhibition at 6 µM of 28%. For the same compound, the “effect on caspase 3 activity” value at human caspase 3 (at concentrations approaching the limits of solubility) is “slight inhibitory activity”. Moreover, the IC50 in assay [2] (setting [7]) is 20 to 50 µM; in assay [2] (setting [8]), 48 µM; in assay [2] (read-out: IC50), 48 µM.

Take `O=C(/C=C/c1ccc([N+](=O)[O-])cc1)N1CCCOC1` [Compound 29a, (E)-3-(4-Nitrophenyl)-1-(1,3-oxazinan-3-yl)prop-2-en-1-one]: the “TGase inhibitory activity (in words)” value in assay [2] is given as “little inhibitory potency”. Also, the IC50 in assay [2] (setting [7]) is over 50 µM; in assay [2] (setting [8]), over 200 µM.

As for `O=C(/C=C/c1ccc([N+](=O)[O-])cc1)c1cccnc1` [Compound 30a, (E)-3-(4-nitrophenyl)-1-(pyridin-3-yl)prop-2-en-1-one], the “TGase inhibitory activity (in words)” value in assay [2] is reported as “as effective as the benzotriazolyl amide inhibitors”. The half-maximal inhibitory concentration (IC50) was 20 to 50 µM in assay [2] (setting [3]) and 21 µM in assay [2] (setting [4]).

For `Nc1ccc(/C=C/C(=O)c2cccnc2)cc1` [Compound 30r, (E)-3-(4-aminophenyl)-1-(pyridin-3-yl)prop-2-en-1-one], the “TGase inhibitory activity (in words)” value in assay [2] is “as effective as the benzotriazolyl amide inhibitors”. Further, the IC50 in assay [2] (setting [3]) is over 50 µM; in assay [2] (setting [4]) it was 148 µM. In addition, the “loss of potency (fold)” value in assay [2] (relative to p-nitro azachalcone 30a) came out at 5 fold.

On to `CC(=O)Nc1ccc(/C=C/C(=O)c2cccnc2)cc1` [Compound 30t, (E)-3-(4-acetylaminophenyl)-1-(pyridin-3-yl)prop-2-en-1-one], for which the “TGase inhibitory activity (in words)” value in assay [2] was “as effective as the benzotriazolyl amide inhibitors”. Further, the IC50 is 20 to 50 µM in assay [2] (setting [3]) and 28 µM in assay [2] (setting [4]).

With `O=C(/C=C/c1ccc([N+](=O)[O-])cc1)c1ccccc1` [Compound 31a, reference compound], the “TGase inhibitory activity (in words)” value in assay [2] was “lack of activity”.

`O=C(OCc1ccc([N+](=O)[O-])cc1)n1nnc2ccccc21` [Compound 32a, p-Nitrobenzyloxycarbonylbenzotriazole]: the “TGase inhibitory activity (in words)” value in assay [2] is “significant loss of activity”. Further, the IC50 in assay [2] (setting [5]) is over 50 µM; in assay [2] (setting [6]), over 200 µM.

With `O=C(CCc1ccc([N+](=O)[O-])cc1)n1nnc2ccccc21` [Compound 33a, p-Nitrohydrocinnamoyl benzotriazolylamide], the “TGase inhibitory activity (in words)” value in assay [2] was “significant loss of activity”. Besides, the IC50 in assay [2] (setting [5]) was over 50 µM; in assay [2] (setting [6]), over 200 µM.

For `O=C(c1ccc([N+](=O)[O-])cc1)n1nnc2ccccc21` [Compound 34a, p-Nitrobenzoyl benzotriazolyl amide], the “IC50 (μM)” value in assay [2] (Table 2, value in brackets or words) was “irreversible”. Moreover, the mode of inhibition entry in assay [2] (versus acyl-donor substrate) is given as “irreversible inhibitor”.

For the compound `O=C(/C=C/C=C/c1ccc([N+](=O)[O-])cc1)n1nnc2ccccc21` [Compound 37a, (2E,4E)-5-(4-Nitrophenyl)penta-2-4-dienoyl benzotriazolyl amide], the “TGase inhibitory activity (in words)” value in assay [2] was “Neither of these two extended conjugated compounds showed significant inhibition”. The IC50 was over 50 µM in assay [2] (setting [5]) and over 200 µM in assay [2] (setting [6]).

Turning to `O=C(/C=C/C=C/c1ccc([N+](=O)[O-])cc1)c1cccnc1` [Compound 38a, (2E,4E)-5-(4-Nitrophenyl)-1-(pyridine-3-yl)penta-2,4-dien-1-one], the “TGase inhibitory activity (in words)” value in assay [2] is reported as “Neither of these two extended conjugated compounds showed significant inhibition”.
